Assays:
MC3T3 cells = assay: RA metabolism by MC3T3 pre-osteoblasts; assay type: cell-based, mouse
Method: (§1) These experiments are to assess the ability of primary cells, or cell lines to metabolize RA, and to determine the effect of inhibition of CYP26A1 or CYP26B1 on this ability. For these experiments, cells are plated into 48-well plates and treated with a radiolabeled (^3H) RA. The extent of conversion of this labeled RA to water soluble metabolites is determined as above for in the cell-based inhibitor assay. Primary human bone marrow stromal cells (available from Lonza) were cultured in MyeloCult (available from Stem Cell Technologies, Vancouver, Canada). Mouse OP9 bone marrow stromal cells and MC3T3 pre-osteoblasts were cultured as above. Cells are plated in the appropriate culture medium and allowed to form a monolayer. Cells are then pre-treated with either DMSO (vehicle control) or RA (1 μM) for 24 hours to induce CYP26 expression. Vehicle, and RA induced cells are then exposed to ^3H-RA in the presence or absence of test CYP26 inhibitor to examine the effects on RA metabolism. Cells are incubated for 3 hours with labeled RA, and metabolites extracted and analyzed as above.

[1] = system: primary human bone marrow stromal cells; assay: RA metabolism by primary human bone marrow stromal cells; assay type: cell-based; details: pre-treated with DMSO or 1 μM RA 24 hours; 1 μM compound (FIG. 5)
Method: as §1

kasumi-1 human AML cells = assay: CD34+CD38- LSC analysis by FACS, Kasumi-1 cells with or without OP9 stroma; assay type: cell-based; details: 1 μM RA plus compound, OP9 stroma present, 72 hours
Method: Many human non-APL AML cell lines are sensitive to RA-induced differentiation. However, co-culture of leukemic cells with bone marrow stromal cells can block this effect of RA. This assay tests the ability of CYP26 inhibitor compounds to overcome the protective effect that stromal cells have on leukemic cell differentiation. For these experiments, OP9 mouse bone marrow stromal cells are grown MEM-α containing 20% FBS, in 24 well plates until a cell monolayer is formed. OP9 cells are then irradiated (15Gy) using a GammaCell 20 cesium-137 source (located at Queen's University) in order to induce growth arrest. Leukemic cells are then added to the irradiated monolayers, or control wells without OP9 cells. AML cell lines (150,000 cells) are then plated onto OP9 monolayers in their appropriated growth medium; THP-1 RPMI-1640 medium containing 10% FBS; MDSL, RPMI-1640 medium containing 10% FBS and 10 ng/ml recombinant human IL-3; Kasumi-1, RPMI-1640 containing 20% FBS; MV4-11, IMDM containing 10% FBS. […] Stained cells are then sorted by FACS in a BD FACS Aria 3 flow cytometer (Queen's University) using FACS Diva software, to assess percentage of cells that are CD11b^+, the relative expression levels of CD11b (by median fluorescence intensity—MFI), or percentage of CD34^+CD38^− leukemic stem cells (LSCs). […]

human AML THP-1 cells = assay: Leukemia cell differentiation by FACS (PE-CD11b), THP-1 cells with or without OP9 stroma; assay type: cell-based
Method: Many human non-APL AML cell lines are sensitive to RA-induced differentiation. However, co-culture of leukemic cells with bone marrow stromal cells can block this effect of RA. This assay tests the ability of CYP26 inhibitor compounds to overcome the protective effect that stromal cells have on leukemic cell differentiation. For these experiments, OP9 mouse bone marrow stromal cells are grown MEM-α containing 20% FBS, in 24 well plates until a cell monolayer is formed. OP9 cells are then irradiated (15Gy) using a GammaCell 20 cesium-137 source (located at Queen's University) in order to induce growth arrest. Leukemic cells are then added to the irradiated monolayers, or control wells without OP9 cells. AML cell lines (150,000 cells) are then plated onto OP9 monolayers in their appropriated growth medium; THP-1 RPMI-1640 medium containing 10% FBS; MDSL, RPMI-1640 medium containing 10% FBS and 10 ng/ml recombinant human IL-3; Kasumi-1, RPMI-1640 containing 20% FBS; MV4-11, IMDM containing 10% FBS. Cells are then treated for 72 hours with DMSO (vehicle control), RA (0.1 μM for THP-1 and MV4-11 cells, and 1 μM for Kasumi-1 cells), test CYP26 inhibitor compound, or the combination of RA and inhibitor compound. After the treatment period, leukemic cells are collected and stained with fluorophore labeled antibodies against cell surface antigens indicative of myeloid differentiation (PE-CD11b), or of stem cell populations (FITC-CD34, PE-CD38); all antibodies are available from BD Biosciences. Stained cells are then sorted by FACS in a BD FACS Aria 3 flow cytometer (Queen's University) using FACS Diva software, to assess percentage of cells that are CD11b^+, the relative expression levels of CD11b (by median fluorescence intensity—MFI), or percentage of CD34^+CD38^− leukemic stem cells (LSCs). Results are typically presented as the average of triplicates.

[2] = system: RA target gene (CYP26A1) expression in MCF-7 cells; assay: Enhancement of RA activity assay, QPCR of CYP26A1 expression in MCF-7 cells; assay type: cell-based; details: 0.1 μM RA plus 1 μM compound, 24, 48, 72 hours
Method: An RA activity assay was used to measure the ability of compounds that inhibit CYP26 to enhance activity of RA, for example, by limiting its catabolism. This assay measured expression of endogenous RA target genes in MCF-7 cells that have been treated with RA and a compound of interest. A compound that inhibits CYP26 activity will have the effect of prolonging the induction of RA target genes in response to RA.
Exponentially growing MCF-7 cells were treated with trypsin, collected and plated into 6-well culture dishes at 300,000 cells per well. Once cells had reached confluency, they were treated with CYP26 inhibitor test compounds or with ketoconazole (a non-selective CYP inhibitor) at a final concentration of 1 μM, or an equal volume of DMSO as a control. […] RNA was harvested using Trizol reagent after 24, 48, and 72 hours of treatment. cDNA was synthesized from 2 μg of total RNA using Superscript III cDNA synthesis kit with random priming (available from Life Technologies, Burlington, ON, Canada). Analysis of expression of the RA inducible CYP26A1 gene was quantified by qPCR normalized against expression of PMM2 with Sybr Select Master Mix (Life Technologies) and gene specific primers in a two-step thermal cycling reaction. Data is provided for a CYP26B1 selective inhibitor, which enhances the induction of CYP26A1. […]

THP-1 cells = assay: Leukemia cell colony formation, THP-1 cells; assay type: cell-based, human; details: RA plus compound, culture with stromal cells
Method: This experiment is used to test the long-term proliferative ability of hematopoietic stem and progenitor cells as well as leukemic stem cells. Colony forming ability in long term cultures is indicative of stem/progenitor cell activity. […] For these experiments, bone marrow stromal and leukemic cell co-cultures are prepared as described above and treated with RA and/or CYP26 inhibitor compound for 72 hours. After the treatment period, leukemic cells are collected and re-plated in semi-solid methylcellulose medium to assess colony forming ability. 500 leukemic cells are plated per dish in 35 mm plates in 1.1 ml of MethoCult (available from STEMCELL Technologies, Vancouver, Canada). Triplicate plates are prepared per treatment, and cultures are grown for 14-16 days in a CO2 incubator. After the culture period colonies are counted under a dissecting microscope.

## CC(C)(C)c1cccc(-c2cc3cc(/C=C/C(=O)O)ccc3[nH]2)c1 [Compound 026]
MC3T3 cells
  RA metabolism, basal and RA-induced: block basal as well as RA-induced RA metabolism in these cells in a dose-dependent manner
[1]
  RA metabolism, basal and RA-induced: efficiently blocked both basal and RA-induced RA metabolism
kasumi-1 human AML cells
  Number of CD34+CD38- cells (LSCs): restored the ability of RA to reduce the number of
Human AML THP-1 cells; 0.1 μM RA plus 1 μM compound, OP9 stroma present, 72 hours
  PE-CD11b MFI: greatly enhanced CD11b MFI
Human AML THP-1 cells; in the presence of stroma
  Sensitization to low doses of RA: sensitized THP-1 cells to low doses of RA
[2]
  RA target gene transcription on co-treatment with RA: enhanced RA target gene transcription, and prolonged this response to at least 72 hours
THP-1 cells
  Colony forming units: rescued the effects of RA and decreased colony forming units
